The source of these data is patent US5756478A, “Method for reducing toxicity of D-nucleoside analogs with L-nucleosides” (priority 1996, dated 1998).

Values joined by “and” are separate entries in the source; they are usually repeats but may differ in a detail not shown here. Equal entries are not always repeated. “Also recorded” adds a separate entry of the source. Where two headings read alike, the source gives them in different places.

Assay type in all cases: cell-based
Experiment [1] relates to CEM, a Human T-type lymphoblast tumor cell line. Nature of the experiment: Cell growth inhibition of CEM cells by D-nucleosides with or without L-nucleosides. An excerpt: CEM, a Human T-type lymphoblast tumor cell line was used for this study. […] At the end of four days after the addition of the drug, the cell number was estimated by hemocytometer. […] The data, presented below in Table 1-3, are normalized against the control. The parenthetical values represent the expected effect the combined agents should have on cell growth.

The test system of experiment [2] is HIV-1IIIB. Nature of the experiment: Anti-HIV activity: protection of MT-2 cells infected with HIV-1IIIB (MTT-dye reduction). The following applies: Human immunodeficiency virus 1, MT2, 120 h. The method, then:
(§1) The following anti-HIV drugs were tested in combination with the L-nucleosides β-L-5-fluoro-2',b 3'-dideoxycytidine [β-L-FddC or L(-)FddC], β-L-5-fluoro-2',3'-dideoxy-2',3'-didehydrocytidine [β-L-Fd4C or L(-)Fd4C], β-L-5-fluoro-2',3'-dideoxy-3'-thiacytidine [L(-)FTC] and β-L-2',3'-dideoxy-3'-thiacytidine [L(-)SddC or 3TC]: 3'-azido-3'deoxythymidine (AZT) as well as the β-D-2',3'-dideoxynucleosides, for example, β-D-2',3'-dideoxycytidine (ddC), β-D-2',3'-dideoxyadenosine, β-D-2',3'-dideoxyinosine (DDI) and β-D-2',3'-didehydro-3'-deoxy-thymidine (D4T). β-L-FddC and β-L-Fd4C was obtained following the method of Lin, et al., J. Med. Chem., 37, no. 6 (1994). L(-)FTC and L(-)SddC were prepared by standard literature procedures. See, for example, Jeong, et al. J. Med. Chem., 36, 181 (1993). AZT was obtained from Sigma Chemical Co., St. Louis, Mo., USA. ddC was obtained from Aldrich Chemical Co., Milwaukke, Wis. USA. DDI and D4T were obtained from Bristol-Myers Co., Wallingford, Conn., USA.
(§2) The above-mentioned drugs were tested using MT-2 cells infected with HIV-1IIIB as described by JW Mellers, et al., Molecular Pharm. 41, 446-451 (1991) with some modification. Briefly, triplicate wells of 96-well plates containing 1×10^4 MT-2 cells were infected with HIV-1IIIB at a multiplicity of infection (MOI) of 0.1 TCID50 per cell (TCID50 - 50% tissue culture infective dose). Serial dilutions of drug were added immediately after infection. Cell viability was quantitated 5 days after infection by the MTT-dye reduction model (Larder, et al. Antimicrob. Agents Chemother. 34, 436-441, 1990). The percentage of protection was calculated with the formula [(a-b/c-b)×100], in which a=the A595 of drug-treated, virus-infected well, b=A595 of no-drug infected wells, and c=A595 of no-drug, uninfected wells.
(Tetrazolium assays rely on reduction of a dye to a coloured formazan, in cell work by metabolically active cells.)

The subject of experiment [3] is HIV-1IIIB. Nature of the experiment: Anti-HIV combination of D- and L-nucleosides in HIV-1IIIB infected MT-2 cells (isobolograms). Conditions: for Effect of L-nucleoside on ID50 of co-administered D-nucleoside: with AZT, D4T, ddC or DDI; for Nature of the anti-HIV combination effect with L-nucleosides (ID50): D-nucleoside co-administered with β-L-FddC, L(-)FTC, L(-)SddC or β-L-Fd4C. How it is done:
as §1, §2
Isobolograms (FIGS. 1-2) were plotted as the percent change in the ID50 of β-L-FddC (L(-)FddC), L(-)FTC, L(-)SddC (FIGS. 1 and 2) β-L-Fd4C (L(-)Fd4C) at various concentrations in combination with AZT, D4T, ddC or DDI at varying concentations on the x-axis and vice versa on the y-axis. Isobolograms (FIG. 3) were plotted as the percent change in the ID50 of β-L-Fd4C (L(-)Fd4C) at various concentrations in combination with AZT or D4T at varying concentrations on the x-axis and vice-versa on the y-axis.

Setting [4] is: Homo sapiens, CCRF-CEM, 96 h, single agent, 50 uM, day 4, read-out: Day 4 Cell Growth - % of Control.
[5] abbreviates: MT-2 cells, HIV-1IIIB, MOI 0.1 TCID50 per cell, 5 days, read-out: ID50 (the source's name).

As to `Nc1ccn([C@@H]2CS[C@H](CO)O2)c(=O)n1` [L(-)SddC, β-L-2',3'-dideoxy-3'-thiacytidine], the activity at 0.1 µM in experiment [1] (Homo sapiens, CCRF-CEM, 96 h, single agent, 0.1 uM, day 4, read-out: Day 4 Cell Growth - % of Control) is 94%. The activity at 1 µM in experiment [1] (Homo sapiens, CCRF-CEM, 96 h, single agent, 1.0 uM, day 4, read-out: Day 4 Cell Growth - % of Control) is 89%. Moreover, the activity at 10 µM in experiment [1] (Homo sapiens, CCRF-CEM, 96 h, single agent, 10 uM, day 4, read-out: Day 4 Cell Growth - % of Control) amounted to 80%. Also, in experiment [1] (setting [4]), the activity at 50 µM came out at 76%. Also, in the experiment with HIV-1IIIB [2] (MT-2 cells, HIV-1IIIB, MOI 0.1 TCID50 per cell, 5 days, unit inferred, read-out: ID50 (the source's name)), the IC50 came to 3 µM. Besides, the “Effect of L-nucleoside on ID50 of co-administered D-nucleoside” value with HIV-1IIIB [3] was “reduces the ID50 value of AZT, ddC, DDI and D4T; also recorded: decreases the ID50 of a co-administered D-nucleoside and vice versa”.
Consider `O=c1[nH]cnc2c1ncn2C1CCC(CO)O1` [DDI, β-D-2',3'-dideoxyinosine], for which the “Day 4 Cell Growth - % of Control” value in experiment [1] (50 uM, in combination with 1 uM 3TC) is listed as 89 % of Control; in experiment [1] (50 uM, in combination with 1 uM (-) FTC) it was 84 % of Control; in experiment [1] (50 uM, in combination with 1 uM β-L-FddC), 84 % of Control; in experiment [1] (100 uM, in combination with 1 uM 3TC) it was 87 % of Control; in experiment [1] (100 uM, in combination with 1 uM (-) FTC), 80 % of Control; in experiment [1] (100 uM, in combination with 1 uM β-L-FddC) it was 80 % of Control. Also, the “Day 4 Cell Growth - % of Control” value in experiment [1] (200 uM, in combination with 1 uM 3TC) is on record as 80 % of Control; in experiment [1] (200 uM, in combination with 1 uM (-) FTC) it was 75 % of Control; in experiment [1] (200 uM, in combination with 1 uM β-L-FddC), 75 % of Control; in experiment [1] (single agent, 50 uM, 5760 min), 94 % of Control; in experiment [1] (single agent, 100 uM, 5760 min) it was 89 % of Control; in experiment [1] (single agent, 200 uM, 5760 min), 79 % of Control. In addition, in experiment [1] (setting [4]), the activity at 50 µM stood at 88%. Besides, in experiment [1] (Homo sapiens, CCRF-CEM, 96 h, single agent, 100 uM, day 4, read-out: Day 4 Cell Growth - % of Control), the activity at 100 µM stood at 85%. Also, the activity at 200 µM in experiment [1] (Homo sapiens, CCRF-CEM, 96 h, single agent, 200 uM, day 4, read-out: Day 4 Cell Growth - % of Control) was determined as 78%. Besides, the “Day 4 Cell Growth - % of Control, expected effect of the combined agents (parenthetical)” value in experiment [1] (50 uM with 1 uM (-) FTC) is reported as 74 % of Control; in experiment [1] (50 uM with 1 uM β-L-FddC) it was 74 % of Control; in experiment [1] (100 uM with 1 uM (-) FTC), 71 % of Control; in experiment [1] (100 uM with 1 uM β-L-FddC), 71 % of Control; in experiment [1] (200 uM with 1 uM (-) FTC), 65 % of Control; in experiment [1] (200 uM with 1 uM β-L-FddC) it was 65 % of Control. Moreover, the IC50 in the experiment on HIV-1IIIB [2] (setting [5]) was 20 µM. In addition, the “Nature of the anti-HIV combination effect with L-nucleosides (ID50)” value with HIV-1IIIB [3] is recorded as “additively; also recorded: additive”.
As to `Cc1cn([C@H]2C=C[C@@H](CO)O2)c(=O)[nH]c1=O` [D4T, β-D-2',3'-didehydro-3'-deoxy-thymidine], the “Day 4 Cell Growth - % of Control” value in experiment [1] (0.3 uM, in combination with 1 uM 3TC) is listed as 94 % of Control; in experiment [1] (0.3 uM, in combination with 1 uM (-) FTC), 84 % of Control; in experiment [1] (0.3 uM, in combination with 1 uM β-L-FddC), 86 % of Control; in experiment [1] (3.0 uM, in combination with 1 uM 3TC) it was 86 % of Control; in experiment [1] (3.0 uM, in combination with 1 uM (-) FTC), 75 % of Control; in experiment [1] (3.0 uM, in combination with 1 uM β-L-FddC), 75 % of Control. Also, the “Day 4 Cell Growth - % of Control” value is 73 % of Control in experiment [1] (30 uM, in combination with 1 uM 3TC); 65 % of Control in experiment [1] (30 uM, in combination with 1 uM (-) FTC); 68 % of Control in experiment [1] (30 uM, in combination with 1 uM β-L-FddC); 89 % of Control in experiment [1] (single agent, 0.3 uM, 5760 min); 80 % of Control in experiment [1] (single agent, 3.0 uM, 5760 min); 65 % of Control and 64 % of Control in experiment [1] (single agent, 30 uM, 5760 min). For the same compound, the activity at 0.3 µM in experiment [1] (Homo sapiens, CCRF-CEM, 96 h, single agent, 0.3 uM, day 4, read-out: Day 4 Cell Growth - % of Control) was 98%. Besides, the activity at 3 µM in experiment [1] (Homo sapiens, CCRF-CEM, 96 h, single agent, 3.0 uM, day 4, read-out: Day 4 Cell Growth - % of Control) turned out to be 84%. Moreover, the activity at 30 µM in experiment [1] (Homo sapiens, CCRF-CEM, 96 h, single agent, 30 uM, day 4, read-out: Day 4 Cell Growth - % of Control) was 70%. Further, the “Day 4 Cell Growth - % of Control, expected effect of the combined agents (parenthetical)” value in experiment [1] (0.3 uM with 1 uM β-L-FddC) was 82 % of Control; in experiment [1] (3.0 uM with 1 uM β-L-FddC), 71 % of Control; in experiment [1] (30 uM with 1 uM β-L-FddC), 59 % of Control. In the experiment with HIV-1IIIB [2] (read-out: ID50), the IC50 turned out to be 6 µM. In addition, the “Nature of the anti-HIV combination effect with L-nucleosides (ID50)” value in the experiment on HIV-1IIIB [3] was “synergistically; also recorded: synergistic”.
For the compound `Nc1nc(=O)n([C@@H]2C=C[C@H](CO)O2)cc1F` [β-L-Fd4C, β-L-5-fluoro-2',3'-dideoxy-2',3'-didehydrocytidine], the IC50 in the experiment on HIV-1IIIB [2] (setting [5]) came out at 0.09 µM. The “Effect of L-nucleoside on ID50 of co-administered D-nucleoside” value in the experiment with HIV-1IIIB [3] was “reduces the ID50 value of AZT, ddC, DDI and D4T; also recorded: decreases the ID50 of a co-administered D-nucleoside and vice versa”.
